Laboratory results reported in paper PMC9329436, “Optimization of the 4-anilinoquin(az)oline scaffold as epidermal growth factor receptor (EGFR) inhibitors for chordoma utilizing a toxicology profiling assay platform” (Scientific Reports, 2022).
Like-named read-outs stand apart in the source and are kept apart here.

What was measured:
Assay type in all cases: biochemical
[1] = biological target: T1, 320 wild-type protein kinases (Homo sapiens, UniProt P33981); conditions: kinase TTK, singlicate
T1 sequence (P33981 1-857): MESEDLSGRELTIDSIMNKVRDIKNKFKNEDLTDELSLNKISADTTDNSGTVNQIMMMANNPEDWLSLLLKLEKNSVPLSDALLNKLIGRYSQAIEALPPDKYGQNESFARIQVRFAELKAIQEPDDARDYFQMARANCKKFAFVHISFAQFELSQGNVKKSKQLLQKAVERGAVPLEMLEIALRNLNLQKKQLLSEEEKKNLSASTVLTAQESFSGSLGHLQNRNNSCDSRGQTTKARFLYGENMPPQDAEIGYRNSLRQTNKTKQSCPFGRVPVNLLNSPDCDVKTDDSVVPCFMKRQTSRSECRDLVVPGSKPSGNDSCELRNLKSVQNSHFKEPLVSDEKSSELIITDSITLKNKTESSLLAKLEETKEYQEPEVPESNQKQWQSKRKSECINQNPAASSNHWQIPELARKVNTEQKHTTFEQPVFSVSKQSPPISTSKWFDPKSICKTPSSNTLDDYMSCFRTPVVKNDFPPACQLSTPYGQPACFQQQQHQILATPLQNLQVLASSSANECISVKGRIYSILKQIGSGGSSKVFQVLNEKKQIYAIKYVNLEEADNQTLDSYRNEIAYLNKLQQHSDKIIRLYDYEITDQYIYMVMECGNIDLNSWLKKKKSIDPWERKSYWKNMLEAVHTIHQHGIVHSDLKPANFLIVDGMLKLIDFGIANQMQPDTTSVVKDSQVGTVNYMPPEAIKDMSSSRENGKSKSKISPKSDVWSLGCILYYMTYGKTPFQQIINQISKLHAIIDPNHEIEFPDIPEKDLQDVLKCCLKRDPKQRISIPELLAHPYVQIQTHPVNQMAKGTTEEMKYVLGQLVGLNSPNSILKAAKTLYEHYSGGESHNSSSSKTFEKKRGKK
Excerpt: (§1) Table S4. Profiling of two compounds at two concentrations against 320 wild-type protein kinases; singlicate measurement; Residual activities (% of control).

[2] = biological target: 320 wild-type protein kinases (Homo sapiens, UniProt P35916); conditions: kinase VEGF-R3, singlicate
320 wild-type protein kinases (Homo sapiens, UniProt P35916), sequence (P35916 25-1363): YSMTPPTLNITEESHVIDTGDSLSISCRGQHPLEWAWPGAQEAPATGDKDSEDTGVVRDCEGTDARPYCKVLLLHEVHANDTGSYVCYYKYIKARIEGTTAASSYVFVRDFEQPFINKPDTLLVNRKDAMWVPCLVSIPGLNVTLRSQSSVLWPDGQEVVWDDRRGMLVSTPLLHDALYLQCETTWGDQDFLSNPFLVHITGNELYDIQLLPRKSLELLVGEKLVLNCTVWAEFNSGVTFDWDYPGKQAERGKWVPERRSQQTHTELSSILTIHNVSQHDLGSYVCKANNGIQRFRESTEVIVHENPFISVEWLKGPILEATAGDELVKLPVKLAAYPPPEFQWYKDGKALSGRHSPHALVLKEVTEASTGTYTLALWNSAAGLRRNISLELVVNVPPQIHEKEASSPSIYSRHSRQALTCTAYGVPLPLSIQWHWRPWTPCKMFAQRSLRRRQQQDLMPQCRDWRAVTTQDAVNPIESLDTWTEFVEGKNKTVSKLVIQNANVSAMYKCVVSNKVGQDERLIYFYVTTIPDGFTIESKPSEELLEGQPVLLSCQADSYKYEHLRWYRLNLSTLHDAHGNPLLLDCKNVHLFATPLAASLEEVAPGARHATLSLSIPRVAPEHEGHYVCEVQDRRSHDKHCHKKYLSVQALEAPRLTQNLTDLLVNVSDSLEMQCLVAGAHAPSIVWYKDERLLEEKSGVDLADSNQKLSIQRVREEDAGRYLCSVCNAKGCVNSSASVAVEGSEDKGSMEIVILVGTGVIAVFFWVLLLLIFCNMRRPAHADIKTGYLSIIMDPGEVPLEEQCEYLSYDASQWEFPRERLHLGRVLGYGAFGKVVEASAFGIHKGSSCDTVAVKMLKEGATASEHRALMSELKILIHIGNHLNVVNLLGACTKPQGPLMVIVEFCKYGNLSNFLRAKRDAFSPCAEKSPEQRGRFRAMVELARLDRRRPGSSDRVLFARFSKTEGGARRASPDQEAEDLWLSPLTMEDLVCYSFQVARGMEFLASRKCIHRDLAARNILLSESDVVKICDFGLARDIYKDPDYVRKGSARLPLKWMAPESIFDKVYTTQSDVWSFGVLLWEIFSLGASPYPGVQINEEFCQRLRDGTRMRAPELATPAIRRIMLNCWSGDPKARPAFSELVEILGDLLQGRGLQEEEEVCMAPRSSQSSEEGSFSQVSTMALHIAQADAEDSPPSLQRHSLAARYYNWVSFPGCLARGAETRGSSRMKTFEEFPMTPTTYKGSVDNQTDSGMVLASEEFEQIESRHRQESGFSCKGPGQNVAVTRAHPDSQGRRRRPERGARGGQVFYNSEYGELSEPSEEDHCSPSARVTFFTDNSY
Excerpt: as §1

[3] = biological target: 320 wild-type protein kinases (Homo sapiens, UniProt Q16512); conditions: singlicate
320 wild-type protein kinases (Homo sapiens, UniProt Q16512), sequence (Q16512 whole entry): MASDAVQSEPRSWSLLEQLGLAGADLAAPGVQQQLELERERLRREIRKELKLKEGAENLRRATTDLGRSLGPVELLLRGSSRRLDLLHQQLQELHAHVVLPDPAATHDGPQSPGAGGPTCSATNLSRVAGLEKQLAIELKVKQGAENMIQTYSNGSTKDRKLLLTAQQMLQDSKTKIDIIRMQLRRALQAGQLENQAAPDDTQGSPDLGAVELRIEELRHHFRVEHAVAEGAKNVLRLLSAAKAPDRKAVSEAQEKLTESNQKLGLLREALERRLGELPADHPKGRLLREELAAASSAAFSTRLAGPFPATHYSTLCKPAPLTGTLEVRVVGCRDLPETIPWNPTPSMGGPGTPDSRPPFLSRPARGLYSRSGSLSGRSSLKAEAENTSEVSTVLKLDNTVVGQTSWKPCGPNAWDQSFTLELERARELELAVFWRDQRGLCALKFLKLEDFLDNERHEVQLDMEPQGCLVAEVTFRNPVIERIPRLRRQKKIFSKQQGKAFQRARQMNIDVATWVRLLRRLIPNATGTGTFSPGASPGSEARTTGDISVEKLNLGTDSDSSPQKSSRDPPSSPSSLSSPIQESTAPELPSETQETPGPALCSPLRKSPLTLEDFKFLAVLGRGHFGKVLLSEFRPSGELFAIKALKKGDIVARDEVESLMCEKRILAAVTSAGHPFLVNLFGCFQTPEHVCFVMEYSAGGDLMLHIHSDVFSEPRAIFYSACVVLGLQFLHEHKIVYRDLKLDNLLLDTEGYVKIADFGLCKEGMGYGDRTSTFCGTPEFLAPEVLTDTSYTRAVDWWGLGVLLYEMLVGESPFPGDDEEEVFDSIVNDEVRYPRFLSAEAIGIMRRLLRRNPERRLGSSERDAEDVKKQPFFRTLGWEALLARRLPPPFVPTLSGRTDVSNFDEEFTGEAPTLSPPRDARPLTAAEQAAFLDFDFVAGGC
Excerpt: as §1

[4] = biological target: 320 wild-type protein kinases (Homo sapiens, UniProt Q8N5S9); conditions: singlicate
320 wild-type protein kinases (Homo sapiens, UniProt Q8N5S9), sequence (Q8N5S9 whole entry): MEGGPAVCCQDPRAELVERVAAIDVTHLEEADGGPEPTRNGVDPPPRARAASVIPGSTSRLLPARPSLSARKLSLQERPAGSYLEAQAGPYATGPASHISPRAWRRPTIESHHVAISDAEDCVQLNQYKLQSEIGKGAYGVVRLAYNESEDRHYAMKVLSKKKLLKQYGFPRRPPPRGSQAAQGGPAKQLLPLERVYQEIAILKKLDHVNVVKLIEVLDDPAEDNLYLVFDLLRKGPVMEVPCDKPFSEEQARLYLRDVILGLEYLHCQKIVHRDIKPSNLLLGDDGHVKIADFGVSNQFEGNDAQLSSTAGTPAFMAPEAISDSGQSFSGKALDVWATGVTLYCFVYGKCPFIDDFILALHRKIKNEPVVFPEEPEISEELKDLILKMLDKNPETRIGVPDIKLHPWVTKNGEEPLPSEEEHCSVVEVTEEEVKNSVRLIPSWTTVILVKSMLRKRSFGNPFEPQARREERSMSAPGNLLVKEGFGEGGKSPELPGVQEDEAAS
Excerpt: as §1

[5] = biological target: 320 wild-type protein kinases (Homo sapiens, UniProt Q96SB4); conditions: kinase SRPK1, singlicate
320 wild-type protein kinases (Homo sapiens, UniProt Q96SB4), sequence (Q96SB4 whole entry): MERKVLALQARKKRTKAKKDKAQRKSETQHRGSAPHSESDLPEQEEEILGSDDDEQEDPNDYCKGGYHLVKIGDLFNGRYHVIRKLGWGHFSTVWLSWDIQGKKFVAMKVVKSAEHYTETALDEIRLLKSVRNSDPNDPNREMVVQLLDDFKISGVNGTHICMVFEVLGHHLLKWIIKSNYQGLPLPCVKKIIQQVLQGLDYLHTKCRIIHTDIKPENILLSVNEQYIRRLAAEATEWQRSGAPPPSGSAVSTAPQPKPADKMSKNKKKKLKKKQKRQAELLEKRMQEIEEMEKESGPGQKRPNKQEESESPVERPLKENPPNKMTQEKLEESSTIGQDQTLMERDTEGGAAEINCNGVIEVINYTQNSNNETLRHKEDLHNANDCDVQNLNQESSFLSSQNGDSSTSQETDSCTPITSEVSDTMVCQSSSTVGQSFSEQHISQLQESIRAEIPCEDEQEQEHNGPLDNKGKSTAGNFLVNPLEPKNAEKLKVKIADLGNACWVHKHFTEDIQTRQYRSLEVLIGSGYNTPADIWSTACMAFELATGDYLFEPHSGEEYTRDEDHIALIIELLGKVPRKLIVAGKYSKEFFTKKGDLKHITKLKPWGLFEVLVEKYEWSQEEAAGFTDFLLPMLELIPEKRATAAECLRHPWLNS
Excerpt: as §1

[6] = biological target: T2, 320 wild-type protein kinases (Homo sapiens, UniProt Q99759); conditions: singlicate
T2 sequence (Q99759 1-626): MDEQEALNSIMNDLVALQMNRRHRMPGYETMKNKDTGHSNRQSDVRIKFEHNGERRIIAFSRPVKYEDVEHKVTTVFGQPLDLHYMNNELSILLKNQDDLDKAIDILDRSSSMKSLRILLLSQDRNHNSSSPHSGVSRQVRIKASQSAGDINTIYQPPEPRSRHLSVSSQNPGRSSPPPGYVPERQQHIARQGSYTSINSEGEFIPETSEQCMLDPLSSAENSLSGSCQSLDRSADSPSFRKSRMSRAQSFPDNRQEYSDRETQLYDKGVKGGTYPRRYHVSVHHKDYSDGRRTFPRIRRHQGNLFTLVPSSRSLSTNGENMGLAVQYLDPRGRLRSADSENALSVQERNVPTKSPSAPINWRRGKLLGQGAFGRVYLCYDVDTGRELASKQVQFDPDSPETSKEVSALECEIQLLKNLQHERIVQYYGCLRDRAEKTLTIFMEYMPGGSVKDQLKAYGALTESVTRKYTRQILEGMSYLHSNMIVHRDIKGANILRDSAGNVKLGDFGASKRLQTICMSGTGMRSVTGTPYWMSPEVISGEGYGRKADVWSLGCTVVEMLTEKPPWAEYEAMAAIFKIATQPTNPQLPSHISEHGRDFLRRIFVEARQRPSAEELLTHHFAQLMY
Excerpt: as §1

[7] = biological target: T3, 320 wild-type protein kinases (Homo sapiens, UniProt Q9NWZ3); conditions: IRAK4 (untagged), singlicate
T3 sequence (Q9NWZ3 1-460): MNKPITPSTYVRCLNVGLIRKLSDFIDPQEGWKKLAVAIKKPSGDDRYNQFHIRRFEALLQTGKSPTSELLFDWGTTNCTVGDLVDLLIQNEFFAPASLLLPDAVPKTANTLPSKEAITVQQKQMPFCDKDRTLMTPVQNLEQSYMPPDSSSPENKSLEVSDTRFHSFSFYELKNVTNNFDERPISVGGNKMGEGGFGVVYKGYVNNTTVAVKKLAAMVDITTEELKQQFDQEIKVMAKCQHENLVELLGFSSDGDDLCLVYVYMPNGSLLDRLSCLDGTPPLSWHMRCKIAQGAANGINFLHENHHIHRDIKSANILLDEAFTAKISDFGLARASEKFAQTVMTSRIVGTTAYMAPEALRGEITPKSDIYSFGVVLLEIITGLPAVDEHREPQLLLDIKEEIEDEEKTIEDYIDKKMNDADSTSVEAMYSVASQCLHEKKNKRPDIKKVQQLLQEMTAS
Excerpt: as §1

[8] = biological target: 320 wild-type protein kinases (Homo sapiens, UniProt Q9UBS0); conditions: kinase S6K-beta, singlicate
320 wild-type protein kinases (Homo sapiens, UniProt Q9UBS0), sequence (Q9UBS0 whole entry): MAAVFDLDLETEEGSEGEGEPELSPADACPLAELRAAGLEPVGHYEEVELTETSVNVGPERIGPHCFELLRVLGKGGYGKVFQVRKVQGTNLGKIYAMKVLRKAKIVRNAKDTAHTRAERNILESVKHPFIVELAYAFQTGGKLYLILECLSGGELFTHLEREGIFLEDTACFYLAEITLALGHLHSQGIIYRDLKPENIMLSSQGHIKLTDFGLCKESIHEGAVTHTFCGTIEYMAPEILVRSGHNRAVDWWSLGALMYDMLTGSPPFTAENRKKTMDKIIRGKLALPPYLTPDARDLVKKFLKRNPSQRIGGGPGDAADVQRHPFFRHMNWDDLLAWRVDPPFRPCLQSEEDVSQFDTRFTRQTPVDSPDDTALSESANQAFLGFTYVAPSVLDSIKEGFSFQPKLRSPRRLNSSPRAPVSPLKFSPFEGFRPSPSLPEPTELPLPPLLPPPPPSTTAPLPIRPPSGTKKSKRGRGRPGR
Excerpt: as §1

SMILES | Residual activity, TTK ([1]; assay conc. 1.0E-06 M) | Residual activity, TTK ([1]; assay conc. 1.0E-07 M) | Residual activity, VEGF-R3 ([2]; assay conc. 1.0E-06 M) | Residual activity, VEGF-R3 ([2]; assay conc. 1.0E-07 M) | Residual activity ([3]; PRK1, 1.0E-06 M) | Residual activity ([3]; PRK1, 1.0E-07 M) | Residual activity ([4]; CAMKK1, 1.0E-06 M) | Residual activity ([4]; CAMKK1, 1.0E-07 M) | Residual activity, SRPK1 ([5]; assay conc. 1.0E-06 M) | Residual activity, SRPK1 ([5]; assay conc. 1.0E-07 M) | Residual activity ([6]; MEKK3, 1.0E-06 M) | Residual activity ([6]; MEKK3, 1.0E-07 M) | Residual activity ([7]; 1.0E-06 M) | Residual activity ([7]; 1.0E-07 M) | Residual activity, S6K-beta ([8]; assay conc. 1.0E-06 M) | Residual activity, S6K-beta ([8]; assay conc. 1.0E-07 M)
C#Cc1cc(Nc2ncnc3cc(I)ccc23)ccc1Cl [Compound 41] | 81 % of control | 100 % of control | 119 % of control | 121 % of control | 96 % of control | 96 % of control | 84 % of control | 87 % of control | 89 % of control | 96 % of control | 107 % of control | 106 % of control | 84 % of control | 96 % of control | 102 % of control | 96 % of control
C#Cc1cc(Nc2ncnc3cc(OC)c(OC)cc23)ccc1Cl [Compound 45] | 83 % of control | 97 % of control | 112 % of control | 120 % of control | 91 % of control | 91 % of control | 110 % of control | 91 % of control | 97 % of control | 100 % of control | 117 % of control | 115 % of control | 69 % of control | 90 % of control | 86 % of control | 105 % of control
